Assay results taken from patent US20230242496A1, “SOX11 INHIBITORS FOR TREATING MANTLE CELL LYMPHOMA” (Icahn School of Medicine At Mount Sinai, priority 2020, published 2023).

Assays:
(His)6-SOX11-DBD protein = biological target: T1, (His)6-SOX11-DBD protein (Homo sapiens, UniProt P35716); test: Surface Plasmon Resonance (SPR) assay; format: binding; conditions: immobilized recombinant (His)6-SOX11-DBD, 25° C., compounds 5-40 μM, mean of three experiments
T1 construct: Recombinant (His)6-SOX11-DBD protein was immobilized
T1 sequence (P35716 49-117 limits assumed): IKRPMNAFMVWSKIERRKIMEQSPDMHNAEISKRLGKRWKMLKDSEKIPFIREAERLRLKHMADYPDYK
Procedure: Surface Plasmon Resonance (SPR) Assay
Recombinant (His)6-SOX11-DBD protein was immobilized at a flow rate of 10 μl/min for 180 seconds to the right channel of a gold-coated SCR NiHC200M sensor chip (XanTec bioanalytics) placed in a Reichert 2SPR instrument (Reichert Technologies). The left channel, without immobilized protein, was used as a reference. […] Compounds flowed sequentially from the left to the right channel over the prepared sensor chip surface. 120 seconds association phase with each compound concentration was followed by 300 seconds dissociation phase with the assay buffer alone. The ka, kd, and KD values were determined from the sensograms for at least 3 concentrations of each compound by curve fitting the data using Reichert's TraceDrawer software. The mean KD value for each compound was calculated from three separate experiments.

Jeko-1 (SOX11+) = test: Cell viability assay (CellTiter-Blue resazurin reduction); format: cell-based; conditions: JeKo-1 cells; for IC50: 0-40 μM
Procedure: Cell viability was determined by a fluorometric resazurin reduction method (CellTiter-Blue; Promega, Madison, Wis.) following the manufacturer's instructions. […] Cells were incubated for 72 hours. After incubation, 20 μl CellTiter-Blue Cell was added to each well and incubated for another 2 hours. […] The number of viable cells in each treated well was calculated, based on the linear least squares regression of the standard curve (OD vs. cell concentration). The viability of cells treated with compounds was normalized to the viability of cells treated with 0.2% Dimethyl sulfoxide (DMSO). Cell counts were confirmed with Trypan Blue Exclusion Assay on the Countess automated cell counter (Invitrogen) according to the manufacturer's specifications. The average and mean standard deviation were calculated from three separate experiments. IC50 values were calculated using the GraphPad Prism (version 4.00) based on a sigmoidal dose-response equation.

[1] = Homo sapiens, JeKo-1, 72 h, 20 μM compound, normalized to 0.2% DMSO

| Structure (SMILES) | Kd ((His)6-SOX11-DBD protein) | IC50 (Jeko-1 (SOX11+); Homo sapiens, JeKo-1, 72 h) | viability at 20 µM (Jeko-1 (SOX11+); [1]) | viability at 20 µM (Jeko-1 (SOX11+); Homo sapiens, 20 μM compound, 72 hours, normalized to 0.2% DMSO) | IC50 (Jeko-1 (SOX11+); Homo sapiens, 72 hours) | Jeko-1 Viability at 20 μM (%) (Jeko-1 (SOX11+); 20 μM compound, 72 hours, normalized to 0.2% DMSO, 20 µM) | IC50 (Jeko-1 (SOX11+); 72 hours) |
| --- | --- | --- | --- | --- | --- | --- | --- |
| O=C(Nc1ccc(S(=O)(=O)Nc2ccccc2)cc1)c1ccc2cn[nH]c2c1 | 48.4 µM | 10 µM | 17.2% | – | – | – | – |
| CC1Sc2ccc(C(=O)Nc3ccc(CN(C)C(C)C)cc3)cc2NC1=O (stereo not shown) | 1.17 µM | – | 105% | – | – | – | – |
| CC1Sc2ccc(C(=O)Nc3cccc(S(=O)(=O)N4CCCC4)c3)cc2N(C)C1=O (stereo not shown) | 346 µM | – | 13.9% | – | – | – | – |
| Nc1ccccc1CC(=O)Nc1cccc(C(=O)Nc2ccc(S(=O)(=O)Nc3ccccc3)cc2)c1 | 0.805 µM | 11 µM | 9.92% | – | – | – | – |
| O=C(Nc1ccc(S(=O)(=O)Nc2ccccc2)cc1)c1ccc2[nH]ncc2c1 | 78.5 µM | 20 µM | 47.6% | – | – | – | – |
| O=C(Nc1ccc(S(=O)(=O)Nc2ccccc2)cc1)c1ccc2cncnc2c1 | 226 µM | > 20 µM | 100% | – | – | – | – |
| CC1Sc2ccc(C(=O)Nc3cccc(S(=O)(=O)Nc4ccccc4)c3)cc2NC1=O (stereo not shown) | 18.6 µM | 10 µM | 2.81% | – | – | – | – |
| CC1Sc2ccc(C(=O)Nc3cccc(S(=O)(=O)Nc4ccccc4F)c3)cc2NC1=O (stereo not shown) | 28.7 µM | 13 µM | 22.7% | – | – | – | – |
| O=C(Nc1ccc2cccnc2c1)c1ccc(OCc2ccccc2)cc1 | 3.58 µM | 8 µM | 22.8% | – | – | – | – |
| CC1Sc2ccc(C(=O)Nc3ccccc3S(=O)(=O)Nc3ccccc3)cc2NC1=O (stereo not shown) | 29.2 µM | < 20 µM | 14.2% | – | – | – | – |
| CC1Sc2ccc(C(=O)Nc3ccc(S(=O)(=O)Nc4cccc(F)c4)cc3)cc2NC1=O (stereo not shown) | 1.26 µM | < 20 µM | 28.2% | – | – | – | – |
| Cc1ccc(NS(=O)(=O)c2ccc(NC(=O)c3ccc4c(c3)NC(=O)C(C)S4)cc2)cc1 (stereo not shown) | 12.4 µM | 10 µM | 0.51% | – | – | – | – |
| CC1Sc2ccc(C(=O)Nc3ccc(S(=O)(=O)Nc4cccc(C(F)(F)F)c4)cc3)cc2NC1=O (stereo not shown) | 5.78 µM | 21 µM | 9.74% | – | – | – | – |
| CC1Sc2ccc(NC(=O)c3ccc(S(=O)(=O)Nc4ccccc4)c(F)c3)cc2NC1=O (stereo not shown) | 16.1 µM | > 20 µM | 75.8% | – | – | – | – |
| CC1Sc2ccc(C(=O)Nc3ccc(Cl)c(S(=O)(=O)N4CCCC4)c3)cc2NC1=O (stereo not shown) | 23.9 µM | – | 1.39% | – | – | – | – |
| CC1Sc2ccc(C(=O)Nc3ccc(S(=O)(=O)NC4CCNCC4)cc3)cc2NC1=O (stereo not shown) | 100 µM | > 20 µM | 80.7% | – | – | – | – |
| CC1Sc2ccc(C(=O)Nc3ccc(S(=O)(=O)N4CCCCC4)cc3)cc2NC1=O (stereo not shown) | 3.63 µM | 8 µM | 7.38% | – | – | – | – |
| O=C(Nc1ccc(S(=O)(=O)N2CCCCC2)c(Cl)c1)c1ccc2c(c1)CCCS2 | 17.6 µM | – | 35.1% | – | – | – | – |
| Nc1cc(C(=O)Nc2ccc(S(=O)(=O)Nc3ccccc3)cc2)ccc1/C=C\C(=O)O | 2.22 µM | 9 µM | 12.4% | – | – | – | – |
| O=C(CCc1c[nH]cn1)Nc1cccc(C(=O)Nc2ccc(S(=O)(=O)Nc3ccccc3)cc2)c1 | 6.46 µM | > 20 µM | 90.7% | – | – | – | – |
| CC1Sc2ccc(C(=O)Nc3ccc(S(=O)(=O)NC4CC4)cc3)cc2NC1=O (stereo not shown) | 18.9 µM | 7 µM | 14.9% | – | – | – | – |
| CC1Sc2ccc(C(=O)Nc3cccc(S(=O)(=O)Nc4ccc(C(F)(F)F)cc4)c3)cc2NC1=O (stereo not shown) | 2.12 µM | < 20 µM | 22.2% | – | – | – | – |
| CCN(CC)S(=O)(=O)c1cccc(NC(=O)c2ccc3c(c2)NC(=O)C(C)S3)c1 (stereo not shown) | 31.2 µM | 8 µM | 0.44% | – | – | – | – |
| CC1Sc2ccc(C(=O)Nc3cccc(CNc4cccc(S(=O)(=O)F)c4)c3)cc2NC1=O (stereo not shown) | 1.9 µM | – | – | 44.3% | 19 µM | – | – |

| Structure (SMILES) | Kd ((His)6-SOX11-DBD protein) | IC50 (Jeko-1 (SOX11+); Homo sapiens, JeKo-1, 72 h) | viability at 20 µM (Jeko-1 (SOX11+); [1]) | viability at 20 µM (Jeko-1 (SOX11+); Homo sapiens, 20 μM compound, 72 hours, normalized to 0.2% DMSO) | IC50 (Jeko-1 (SOX11+); Homo sapiens, 72 hours) | Jeko-1 Viability at 20 μM (%) (Jeko-1 (SOX11+); 20 μM compound, 72 hours, normalized to 0.2% DMSO, 20 µM) | IC50 (Jeko-1 (SOX11+); 72 hours) |
| --- | --- | --- | --- | --- | --- | --- | --- |
| CC1Sc2ccc(C(=O)Nc3cccc(S(=O)(=O)Nc4ccccc4C(F)(F)F)c3)cc2NC1=O (stereo not shown) | 91.7 µM | > 20 µM | 73.6% | – | – | – | – |
| CC1Sc2ccc(C(=O)Nc3ccc(S(=O)(=O)Nc4ccccc4)cc3)cc2NC1=O (stereo not shown) [drawing 468] | 38 µM | – | – | – | – | 0.83% | 12.5 µM |
| CC1Sc2ccc(C(=O)Nc3ccc(S(=O)(=O)N4CCCC4)cc3)cc2NC1=O (stereo not shown) | 138 µM | 8.5 µM | 2.97% | – | – | – | – |
| CC1Sc2ccc(C(=O)Nc3ccc(S(=O)(=O)Nc4ccccc4)cc3Cl)cc2NC1=O (stereo not shown) | 3.1 µM | < 20 µM | 36.2% | – | – | – | – |
| CC1Sc2ccc(C(=O)Nc3ccc(CN4CCCCC4)cc3)cc2NC1=O (stereo not shown) | 3.43 µM | – | 108% | – | – | – | – |
| CC1Sc2ccc(C(=O)Nc3ccc(S(=O)(=O)N4CCCC4)c(Cl)c3)cc2N(C)C1=O (stereo not shown) | 20.4 µM | – | 8.44% | – | – | – | – |
| CCCN1C(=O)CSc2ccc(C(=O)Nc3ccc(S(=O)(=O)N4CCCCC4)cc3)cc21 | 5.87 µM | 17 µM | 39.9% | – | – | – | – |
| CC1Sc2ccc(C(=O)Nc3ccc(S(=O)(=O)N(C)c4ccccc4)cc3)cc2NC1=O (stereo not shown) | 1.47 µM | 9 µM | 18% | – | – | – | – |
| Cc1cccc(NCc2ccc(NC(=O)c3ccc4c(c3)NC(=O)C(C)S4)cc2)c1 (stereo not shown) | 8.16 µM | – | 79% | – | – | – | – |
| CC1Sc2ccc(C(=O)Nc3cccc(S(=O)(=O)Nc4ccncc4)c3)cc2NC1=O (stereo not shown) | 21.2 µM | > 20 µM | 95.8% | – | – | – | – |
| CC1Sc2ccc(C(=O)Nc3cccc(S(=O)(=O)Nc4ccc(Cl)cc4)c3)cc2NC1=O (stereo not shown) | 4.24 µM | 11.5 µM | 10.4% | – | – | – | – |
| O=C(Nc1ccc(S(=O)(=O)Nc2ccccc2)cc1)c1ccc2ncccc2c1 | 70 µM | < 20 µM | 26% | – | – | – | – |
| O=C(Nc1cccc(S(=O)(=O)N2CCCC2)c1)c1ccc2c(c1)CCCS2 | 1.98 µM | – | 27.1% | – | – | – | – |
| O=C(Nc1cccc(OCc2ccccc2)c1)c1ccc2snnc2c1 | 9.61 µM | > 20 µM | 98.1% | – | – | – | – |
| CC1Sc2ccc(C(=O)Nc3ncc(S(=O)(=O)Nc4ccccc4)s3)cc2NC1=O (stereo not shown) | 3.12 µM | > 20 µM | 88% | – | – | – | – |
| CC1Sc2ccc(C(=O)Nc3ccc(S(=O)(=O)Nc4ccncn4)cc3)cc2NC1=O (stereo not shown) | 5.51 µM | > 20 µM | 106% | – | – | – | – |
| O=C1Cc2ccc(C(=O)Nc3ccc(S(=O)(=O)Nc4ccccc4)cc3)cc2N1 | 20.9 µM | > 20 µM | 81.5% | – | – | – | – |
| c1ccc(COc2cccc(CNc3ccc4cncnc4c3)c2)cc1 | 24.2 µM | – | 1.4% | – | – | – | – |
| CN1C(=O)CSc2ccc(C(=O)Nc3ccc(CN4CCCCCC4)cc3)cc21 | 6.93 µM | > 20 µM | 102% | – | – | – | – |
| CC(C)C1Sc2ccc(C(=O)Nc3ccc(S(=O)(=O)Nc4ccccc4)cc3)cc2NC1=O (stereo not shown) | 1.18 µM | 2.5 µM | 1.01% | – | – | – | – |
| Cc1ccccc1COc1ccc(NC(=O)c2ccc3c(c2)NC(=O)C(C)S3)cc1 (stereo not shown) | 7.91 µM | – | 99.2% | – | – | – | – |
| CC1Sc2ccc(C(=O)Nc3ccc(S(=O)(=O)Nc4ccc(C(F)(F)F)cc4)cc3)cc2NC1=O (stereo not shown) | 1.57 µM | > 20 µM | 63.6% | – | – | – | – |
| O=C(Nc1ccc(S(=O)(=O)N2CCCC2)c(Cl)c1)c1ccc2c(c1)CCCS2 | 3.86 µM | – | 1.26% | – | – | – | – |
| CC1Oc2ccc(C(=O)Nc3ccc(S(=O)(=O)Nc4ccccc4)cc3)cc2NC1=O (stereo not shown) | 15.3 µM | 12 µM | 9.09% | – | – | – | – |
